Experimental data reported in US20220370545A1, “INTEGRIN RECEPTOR ALPHA V BETA 3 AND ITS LIGAND INVOLVED IN CHRONIC ITCH” (North Carolina State University, priority 2019, published 2022).

Tests used:
[1] = test system: Integrin αvβ3 on DRG Sensory Neurons; test: Fura-2 calcium imaging of periostin-induced calcium response in cultured DRG sensory neurons; type: cell-based, mouse; details: periostin 16 ng/μl
Protocol: DRGs were isolated from mice and dissociated in 1 mL of media containing 2.5 U/mL of dispase (Fisher Scientific, Hampton, New Hampshire, United States of America) and 2.5 mg/mL of collagenase (Fisher Scientific, Hampton, New Hampshire, United States of America). After dissociation, the cells were washed with complete media (DMEM (HiMedia Laboratories, Mumbai, India) with 10% FBS (Atlanta Biologicals, Flowery Branch, Georgia, United States of America) and 1% PenStrep (VWR International, Radnor, Pa., United States of America)) and pelleted at 1000 rpm for 15 minutes. Approximately 30 μL of the cell suspension was plated on 18 mm round glass slides with a coating of laminin (Sigma Aldrich, St. Louis, Miss., United States of America) and poly-L-lysine (Sigma Aldrich, St. Louis, Miss., United States of America) and incubated for 1.5 hours. Afterwards, 1 mL of complete media was added, and the cells were incubated overnight. All incubation steps were done at 37° C. with 5% CO2.
Before imaging, cells were incubated in 350 μL of complete media containing 1 μM Fura-2 AM (Enzo Life Sciences, Farmingdale, New York, United States of America) for 30 min at 37° C. with 5% CO2. During imaging, the cells were perfused with a buffer containing the following: 135 mM sodium chloride, 3.2 mM potassium chloride, 2.5 mM magnesium chloride, 2.8 mM calcium chloride, 667 μM monobasic sodium phosphate, 14.2 mM sodium bicarbonate, and 10.9 mM D-glucose (all from VWR International, Radnor, Pennsylvania, United States of America) with a pH between 7.00 and 7.40. The buffer and the holding plate were kept at 37° C. while imaging. Imaging data was collected on a TE200 inverted microscope using NIS Elements software (Nikon, Melville, New York, United States of America). Cells were exposed to 340 nm and 380 nm wavelengths for 100 ms and the A340/A380 ratio was calculated. Traces were analyzed using Excel and responses greater than 10% of the baseline were counted. Each data point in the scatter plots represented one coverslip.
Calcium Imaging: Calcium imaging will be performed on the DRG neurons as previously described (Pitake et al., 2018). Briefly, DRG neurons will be incubated for longer than 30 min in DMEM containing 1 μM of a fluorescent indicator Fura-2 AM (Enzo Life Sciences, Inc., Farmingdale, N.Y., United States of America). The neurons will be perfused in a standard bath solution containing 140 mM NaCl, 5 mM KCl, 2 mM MgCl2, 2 mM CaCl2, 10 mM Hepes and 10 mM D-glucose at pH 7.4 adjusted with NaOH. A calcium-free bath solution will be prepared by omitting 2 mM CaCl2 from the standard bath solution […] adding 5 mM EGTA. Fura-2 fluorescence excited at 340 and 380 nm and emission will be monitored at 510 nm with a digital CCD camera (Andor Clara DR-4152, Andor Technology Ltd, Belfast, United Kingdom). Data will be obtained by every 100 ms using an imaging software (NIS-Elements AR 4.13.04, Nikon Corporation, Tokyo, Japan) and analyzed by Microsoft Excel (Microsoft Corporation, Redmond, Wash., United States of America). Values of calcium responses will be normalized by dividing measured values (F) with average values of initial 5 frames (F0) of each cell and described as F/F0. In this study, changes in each response to an application with F/F0>0.1 will be regarded as positive. Cells not responding to 100 mM KCl, which is applied at the end of each experiment, will be regarded as non-neuronal cells and excluded from analysis.
Periostin (10 ug/ml) will be used to evoke calcium influx. This response has been optimized. The peptide inhibitors will be tested on DRG neurons to measure calcium influx in response to periostin. Data on calcium imaging will be presented by presenting each mouse±SEM. The IC50 value of the inhibitor will also be determined
Additional inhibitors were studied using the calcium imaging method described in Example 3. Briefly, the Fura2-AM calcium imaging method was performed on live dorsal root ganglia (DRG) neurons (ex vivo). […]

[2] = test system: periostin-induced itch behavior in mice; test: Scratching behavior after intradermal periostin injection in the dorsal neck of mice; type: in vivo, mouse
Protocol: All behavioral experiments were conducted during the light cycle at ambient temperature (23° C.). Behavioral assessment of scratching behavior was conducted as described previously (Mishra et al., 2011). Briefly, mice were injected intradermal into the nape of the neck with periostin (R&D), histamine, and chloroquine (all Millipore-Sigma) as previously described (Shimada and LaMotte, 2008). Compounds were diluted in PBS and the same was used as a vehicle. […] Scratching behavior was recorded for 30 minutes and data was presented in bouts per 30 minutes for mice. One bout was defined as scratching behavior toward the injection site between lifting the hind leg from the ground and either putting it back on the ground or guarding the paw with the mouth. Injections of periostin, and capsaicin in the mouse cheek itch/pain model were performed as described previously (Shimada and LaMotte, 2008). For eye wipes assay, periostin and capsaicin were dropped on mouse cornea and counted wipes for 1-minute. Injection volume was always 20 μl in mice. For dog's study, periostin (25 μg/25 μl) was injected in the dorsal neck (s.c.) and behavior was recorded and quantified for 30 minutes as “duration of pruritus manifestation” (DPM), as described earlier (Paps et al., 2016). For non-human primate (NHP) studies, periostin (25 μg/100 μl) was injected in the NHP thigh (s.c.) on the lateral side of the upper part of the hind limb; the skin area over the vastus lateralis muscle. The lateral side of the upper part of the hind limb was chosen as an injection site because this location is safe and easy to access when the animal is in a chair. The number of scratches is easily countable in NHP. When different raters separately scored a single tape, the ratings indicated high interrater reliability (coefficient of correlation, r>0.95). This method of itch readout in NHP has been used and accepted (Ko and Naughton, 2000). The behavior was recorded for 30 minutes duration and number of scratches quantified. In NHP, a scratch is defined as one brief (<1 s) episode of scraping contact of the forepaw or hind paw on the skin surface

Molecule	periostin-dependent calcium response ([1]; perfusion with 100 nM cilengitide)	periostin-induced itch behavior ([2]; cilengitide 100 nM i.p. 10 minutes prior to periostin i.d. (5 μg/20 μl))	periostin-induced itch behavior ([2]; cilengitide 100 nM i.v. 10 minutes prior to periostin i.d. (5 μg/20 μl))	itch behavior after cilengitide alone ([2]; cilengitide injected alone, no periostin)	comparison of inhibitory effect among routes of injection ([2]; intravenous pre-injection versus i.p. and mix)	periostin-induced itch behavior ([2]; periostin and cilengitide mixed together and injected s.c.)	DRG sensory neurons with periostin-dependent changes in intracellular calcium [1]	scratching behavior after periostin injection ([2]; single i.d. injection 5 μg/20 μl in dorsal neck, within 15 minutes)
CC(C)[C@H]1C(=O)N[C@@H](CCCN=C(N)N)C(=O)NCC(=O)N[C@@H](CC(=O)O)C(=O)N[C@H](Cc2ccccc2)C(=O)N1C [cilengitide, cyclo RGDf-n(Me)V]	significantly reduced	significantly reduced	significantly reduced	did not induce itch behavior	strongest inhibitory effect	significantly reduced		
periostin: fasciclin extracellular matrix protein, endogenous ligand of integrin αvβ3; mouse recombinant used (protein) NSYYDKVLAHSRIRGRDQGPNVCALQQILGTKKKYFSSCKNWYQGAICGKKTTVLYECCPGYMRMEGMKGCPAVMPIDHVYGTLGIVGATTTQHYSDVSKLREEIEGKGSYTYFAPSNEAWENLDSDIRRGLENNVNVELLNALHSHMVNKRMLTKDLKHGMVIPSMYNNLGLFINHYPNGVVTVNCARVIHGNQIATNGVVHVIDRVLTQIGTSIQDFLEAEDDLSSFRAAAITSDLLESLGRDGHFTLFAPTNEAFEKLPRGVLERIMGDKVASEALMKYHILNTLQCSEAITGGAVFETMEGNTIEIGCEGDSISINGIKMVNKKDIVTKNGVIHLIDEVLIPDSAKQVIELAGKQQTTFTDLVAQLGLASSLKPDGEYTLLAPVNNAFSDDTLSMDQRLLKLILQNHILKVKVGLSDLYNGQILETIGGKQLRVFVYRTAICIENSCMVRGSKQGRNGAIHIFREIIQPAEKSLHDKLRQDKRFSIFLSLLEAADLKDLLTQPGDWTLFAPTNDAFKGMTSEERELLIGDKNALQNIILYHLTPGVYIGKGFEPGVTNILKTTQGSKIYLKGVNETLLVNELKSKESDIMTTNGVIHVVDKLLYPADIPVGNDQLLELLNKLIKYIQIKFVRGSTFKEIPMTVYRPAMTKIQIEGDPDFRLIKEGETVTEVIHGEPVIKKYTKIIDGVPVEITEKQTREERIITGPEIKYTRISTGGGETGETLQKFLQKEVSKVTKFIEGGDGHLFEDEEIKRLLQGDTPAKKIPANKRVQGPRRRSREGRSQ							about 10±2%	robust scratching behavior
